From article PMC8802628, “Selective activation of PFKL suppresses the phagocytic oxidative burst” (Cell, 2021)

Biological target: T1, PFKL (Homo sapiens, UniProt P17858)
T1 construct: endogenous in cells; host or cells: THP-1 cell lysate
T1 sequence (P17858 2-780 limits assumed): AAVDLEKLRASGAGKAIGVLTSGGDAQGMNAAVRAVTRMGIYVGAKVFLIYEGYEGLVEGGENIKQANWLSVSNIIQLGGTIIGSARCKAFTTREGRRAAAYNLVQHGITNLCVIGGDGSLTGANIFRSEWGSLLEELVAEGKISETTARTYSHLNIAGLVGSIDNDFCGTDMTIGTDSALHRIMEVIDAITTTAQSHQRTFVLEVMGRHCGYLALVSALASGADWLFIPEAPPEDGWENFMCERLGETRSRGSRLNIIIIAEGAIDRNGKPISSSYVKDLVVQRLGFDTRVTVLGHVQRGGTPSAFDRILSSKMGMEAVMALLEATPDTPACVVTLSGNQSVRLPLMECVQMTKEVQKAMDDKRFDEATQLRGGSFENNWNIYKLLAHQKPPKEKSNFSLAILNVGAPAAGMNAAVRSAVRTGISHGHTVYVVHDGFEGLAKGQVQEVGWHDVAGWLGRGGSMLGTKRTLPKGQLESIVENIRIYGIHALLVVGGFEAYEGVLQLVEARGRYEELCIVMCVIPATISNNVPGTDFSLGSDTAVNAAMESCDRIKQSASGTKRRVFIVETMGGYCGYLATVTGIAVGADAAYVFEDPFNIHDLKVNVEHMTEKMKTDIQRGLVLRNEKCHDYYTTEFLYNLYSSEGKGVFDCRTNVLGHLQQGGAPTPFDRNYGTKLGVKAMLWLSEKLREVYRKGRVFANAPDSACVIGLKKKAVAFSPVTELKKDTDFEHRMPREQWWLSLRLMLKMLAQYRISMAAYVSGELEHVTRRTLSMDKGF
Test: Thermal shift of PFKL by immunoblotting in THP-1 lysates
Type: binding
Method: Figure 2. Chemoproteomic analysis of the global interactors and specific targets of NA-11 (A) Dual chemoproteomic workflow. (B) TPP analysis of neutrophil lysates. Graph plots the ΔTm induced by NA-11 between 37°C and 65°C versus log2(fold change in the area under the melting curve from 44°C to 58°C). Each circle represents a different protein. Top hits with an upward shift in Tm are boxed. p values were determined by paired Student’s t test. (C) Percentage of PMNs undergoing PMA-induced NETosis. Bars show the mean ± SD of cells from three donors. (D) Structures of PALP1 and PALP6. […] Dot size indicates the p values from the affinity pull-downs (paired Student’s t test). […] (F) Western blots of THP-1 lysates heated for 3 min. Graph indicates PFKL band intensities quantified using ImageJ. Data are the mean ± SD of three independent experiments. See also Figures S2 and S3.
We validated the interaction of NA-11 with PFKL in THP-1 cells by immunoblotting PFKL in TPP samples (Figure 2F). […] PDE6δ sustains Ras signaling, which activates the Raf-MEK (mitogen-activated ERK kinase)-ERK (extracellular signal-regulated kinase) pathway ([Chandra et al., 2011]). […] Thus, NA-11 must not inhibit NETosis by compromising the MEK-ERK signaling cascade downstream of PDE6δ.

CC(=O)Nc1ccc2c(c1)OCc1cc(-c3ccccc3C#CCCCO)nn1C2 [NA-11]
melting temperature of PFKL with compound (55°C ± 1°C without shift): 59 °C | thermal shift in PFKL (immunoblot): 4 °C
